Reference: patent US20030139470A1, “3,4-dihydroxybenzyl-substituted carbonic acid derivatives and the use thereof as antioxidants” (priority 2000, published 2003)

What was measured:
[1] = Accelerated autoxidation of lipids by air, Rancimat apparatus, soybean oil; conditions: antioxidative index = IP(with test solution)/IP(control sample), soybean oil purified over alumina grade N
Method: (§1) The activity of the exemplary compounds as antioxidants was compared with that of conventional antioxidants. The test system used was the accelerated autoxidation of lipids by air with or without antioxidant using the Rancimat apparatus (Rancimat is a registered trademark of Metrohm AG, Herisau, Switzerland).
(§2) The exemplary compounds, vitamin C, α-tocopherol and 3,5-di-tert-butyl-4-hydroxytoluene were dissolved in methanol or acetone, and 100 μl of each test solution was added to a 3 g prepared oil sample. In a control sample, only solvent was added. A constant stream of dry air (20 l/h) was bubbled through the heated oil sample which contained the test solution, and the volatile oxidation products (predominantly short-chain fatty acids such as formic acid or acetic acid) were collected in a receiver containing water. The conductivity of this aqueous solution was continuously measured and documented. The oxidation of (unsaturated) fats proceeds only very slowly for some time and then suddenly increases. The time to the increase is referred to as the induction period (IP).
(§3) The following equation was used to calculate the antioxidative index (AOI):
(§4) AOI=IP(with test solution)/IP(control sample).

[2] = Accelerated autoxidation of lipids by air, Rancimat apparatus, squalene; conditions: antioxidative index = IP(with test solution)/IP(control sample), squalene purified over alumina grade N, stabilized with 1 ppm α-tocopherol
Method: as §1, §2, §3, §4
The results for the experiment at 80° C. in squalene that has been purified over alumina grade N and stabilized with 1 ppm of α-tocopherol are given in Table 4: […]

[3] = DPPH test for the removal of free radicals (activity as free-radical scavengers); conditions: DPPH 100 μmol/l in methanol, absorption at 515 nm
Method: The activity of the exemplary compounds as free-radical scavengers was compared with that of conventional free-radical scavengers. For this purpose, the DPPH-(1,1-diphenyl-2-picrylhydrazyl) test for the removal of free radicals was used.
DPPH was dissolved in methanol to a concentration of 100 μmol/l. A series of dilutions of the exemplary compounds, vitamin C, α-tocopherol and 3,5-di-tert-butyl-4-hydroxytoluene were prepared in methanol. Methanol served as the control. 2500 μl of the DPPH solution were mixed with 500 μl of each test solution and the decrease in absorption at 515 nm was read until the decrease was less than 2% per hour. The activity of the test substances as free-radical scavengers was calculated according to the following equation:
Activity as free-radical scavenger (%)=100−(absorption of the test compounds)/(absorption of the control)×100.
The activity as free-radical scavenger (%) in a series of dilutions of test compounds was used to calculate, for each test compound, the effective relative concentration EC50 (based on the starting concentration of DPPH, EC=c(test compound)/c(DPPH)) of a test compound at which 50% of the free radical DPPH had been removed.

Row | SMILES | EC50 (effective relative concentration, c(test compound)/c(DPPH), at which 50% of the free radical DPPH had been removed) [3] [mol/mol] | AOI in soybean oil at 100° C. with 0.05% test substance [1] | AOI in squalene at 80° C. with 0.005% test substance [2]
1 | Cc1c(C)c2c(c(C)c1O)CC[C@@](C)(CCC[C@H](C)CCC[C@H](C)CCCC(C)C)O2 [α-Tocopherol, reference compound] | 0.25 | 5.1 | 39
2 | Cc1cc(C(C)(C)C)c(O)c(C(C)(C)C)c1 [3,5-Di-tert-butyl-4-hydroxytoluene, reference compound] | 0.24 | 4.8 | 38
3 | COC(=O)NCc1ccc(O)c(O)c1 [Example 1, N-(3,4-Dihydroxybenzyl)-O-methylurethane] | 0.29 | 7.2 | 34
4 | O=C1O[C@H]([C@@H](O)CO)C(O)=C1O [Vitamin C, reference compound] | 0.27 | 1.2 | 0.7

Now from value to compound, other results behind:

Row | EC50 (effective relative concentration, c(test compound)/c(DPPH), at which 50% of the free radical DPPH had been removed) [3] [mol/mol] | SMILES | AOI in soybean oil at 100° C. with 0.05% test substance [1] | AOI in squalene at 80° C. with 0.005% test substance [2]
5 | 0.13 | CCCCC(CC)COC(=O)NCc1ccc(O)c(O)c1 (centres unmarked) [Example 4, N-(3,4-Dihydroxybenzyl)-O-(2-ethylhexyl)urethane] | 10.7 | 45
6 | 0.19 | CCCCCCOC(=O)NCc1ccc(O)c(O)c1 [Example 3, N-(3,4-Dihydroxybenzyl)-O-hexylurethane] | 14.5 | 49
7 | 0.36 | CC(C)[C@@H]1CC[C@@H](C)C[C@H]1OC(=O)NCc1ccc(O)c(O)c1 [Example 2, N-(3,4-Dihydroxybenzyl)-O-[(1R,3R,4S)menthyl]urethane] | 6.5 | 48
8 | 0.06 | CCCCCCNC(=S)NCc1ccc(O)c(O)c1 [Example 5, N-(3,4-Dihydroxybenzyl)-N′-hexylthiourea] |  | 62
